Assay results: patent US20110245323A1, “RIG-Like Helicase Innate Immunity Inhibits VEGF-Induced Tissue Responses” (Yale University, priority 2006, published 2011)

Legend:
Format in all cases: in vivo, mouse
[1] = test system: CC10-rtTA-VEGF165 transgenic mice; test: VEGF-induced vascular permeability (Evans blue dye extravasation, lung wet to dry weight ratio, BAL protein)
Method: (§1) To define the effects of Poly(I:C) a number of protocols were employed. In most experiments, a pretreatment-2 week protocol was employed. In these experiments, WT and Tg+ mice were treated with Poly(I:C) (30 μg in 50 lambda unless otherwise indicated; Amersham Biosciences, N.J.) or vehicle control via nasal aspiration and transgene activation was accomplished via the administration of dox (0.5 mg/ml) in the animal's drinking water 24 hours later. The Poly(I:C) was administered every other day and the dox was administered continuously for up to 2 weeks.
(§2) Lastly, in selected experiments post-transgene activation protocols were employed. In these experiments dox was administered for 2 days or 2 weeks. The Poly(I:C) was then administered via intranasal aspiration every other day for 2 weeks as disclosed elsewhere herein. In selected pre-treatment and post-transgene activation experiments, unmethylated CpG (CpG-B) (Keck Center, Yale University) was also employed at similar doses. At the end of these intervals, assessments of angiogenesis (anti-CD31 immunohistochemistry), vascular permeability (Evan's blue dye extravasation, wet to dry lung weight measurements, BAL protein concentration), BAL and tissue inflammatory cell infiltration and mucus metaplasia (periodic acid-Schiff (PAS) staining, MUC5AC immunoblotting) were undertaken. In all cases experiments were designed to compare Tg− and Tg+ mice on normal water and Tg− and Tg+ mice on dox water.
Lungs were excised en bloc and extrapulmonary tissues were removed. They were then weighed, placed in a desiccating oven at 65° C. for 48 hours and reweighed.
In some instances, animal lungs were excised en bloc after intravascular perfusion and weighed. They were then put into a SpeedVac system (ThermoSavant; Milford, Mass.), desiccated at 60° C. overnight, and reweighed.
Evans blue dye (EBD) (Sigma-Aldrich Inc.) in 0.9% saline at a concentration of 5 mg/ml was used to assess plasma leakage as previously described (Lee et al., 2004, Nat Med 10:1095-1103). The results are expressed as the ratio of the EBD absorbance at 620 nm of paired lung homogenates and serum.
BAL was undertaken and protein levels were assessed using the Dc Protein Assay Kit (Bio-Rad Laboratories, Hercules, Calif.) according to manufacturer's instructions. The optical density of each sample was read at 750 nm wave length with a Smartspec 3000 Spectrophotometer (Bio-Rad Laboratories).

[2] = test system: CC10-rtTA-VEGF165 transgenic mice; test: VEGF-induced mucus metaplasia (PAS staining, BAL MUC5AC); settings: for VEGF-induced mucus metaplasia (PAS stains, BAL MUC5AC accumulation): vs vehicle
Method: as §1, §2
The lungs were removed en bloc as described elsewhere herein, inflated at 25 cm pressure with PBS containing 0.5% low melting point agarose gel, fixed in Streck solution (Streck Laboratories, La Vista, Nebr.), embedded in paraffin, sectioned and stained. Hematoxylin and eosin and PAS stains were performed in the Research Histology Laboratory of the Department of Pathology at the Yale University School of Medicine. Pulmonary hemorrhage was evaluated by quantitating BAL red blood cell number with a Coulter counter (Beckman Coulter).
The levels of MUC5AC, the major airway mucin in BAL fluids, were assessed as previously described (Lee et al., 2008, Am J Respir Cell Mol Biol 39:739-746). In these evaluations, 0.1 ml of BAL fluid was slot blotted onto nitrocellulose membranes using a Minifold II slot blot apparatus (Schleicher & Schuell). After air-drying, the membrane was blocked with 5% skim milk, washed three times and incubated overnight at 4° C. with a monoclonal antibody against Mucin-5AC (45M1; NeoMarkers, Union City, Calif.). After washing, the membranes were incubated for 1 hour at room temperature with horseradish peroxidase-conjugated anti-mouse immunoglobulin (Ig)-G (Pierce). Immunoreactive mucins were detected using a chemiluminescent procedure (ECL Plus Western blotting detection system, Amersham Biosciences) according to instructions from the manufacturer.

[3] = test system: Erk, FAK, Akt, and eNOS signaling pathways; test: VEGF signaling in lung (eNOS/iNOS mRNA, immunoblot of Erk, FAK, Akt, eNOS); settings: Tg+ mice lung
Method: These experiments used antibodies specific for Akt or phosphorylated (p) Akt (Danvers Mass.), FAK or pFAK (BioSource, International; Camarillo Calif.), PI3K or pPI3K (Cell Signalling), eNOS and iNOS (Santa Cruz BioTechnology, Santa Cruz Calif., USA) and MUC-5AC (NeoMarkers; Fremont). Western blot analysis was performed using standard protocols and visualized using the ECL system (Amersham Biosciences; Piscataway, N.J.).
Total RNA was isolated from fresh mouse lung with TRIzol reagent (Invitrogen; Carlsbad, Calif.) following the manufacturer's instructions. Quantification of mouse lung mRNA was performed by quantitative real-time PCR using ABI 7500 fast real-time PCR system (Applied Biosystems; Foster City, Calif.) and power SYBR green PCR master mix kit with appropriately specific primers (Applied Biosystems; Foster City, Calif.).
Lung lysates were subjected to immunoblot analysis using antibodies against phosphorylated (p) p-Erk, total Erk, p-Fak; total FAK; p-Akt, total Akt, peNOS and total eNOS (Cell Signaling, Beverly Mass.).

VEGFR1 = test: VEGF receptor expression on dendritic and endothelial cells, FACS; settings: Tg+ mice, pretreatment-2 week protocol
Method: (§3) Cell preparations were obtained from Tg− and Tg+ mice that had been randomized to receive Poly(I:C) or its vehicle control according to the pretreatment-2 week protocol described above. They were then incubated with antibodies against CD45, CD11c, MHCII, CD31, VEGFR1 (R & D Systems), VEGFR2 (Biolegends, San Diego, Calif. USA) or VEGFR3 (R&D Systems). FACS analysis was used to define the levels of receptor expression on dendritic cells (CD45+, CD11c+, MHCII+) and endothelial cells (CD45−, CD31+).

VEGFR2 = test: as above; settings: Tg+ mice, pretreatment-2 week protocol
Method: as §3

VEGFR3 = test: as above; settings: Tg+ mice, pretreatment-2 week protocol
Method: as §3

[4] = test system: KC/CXCL1 and MIP-2/CXCL14; test: BAL neutrophil chemotactic chemokines by ELISA; settings: Tg+ mice, pretreatment, 2 weeks
Method: ELISA and activity assay kits for IFNa and IFNβ analysis were purchased from PBL Biomedical Laboratories (Piscataway, N.J.). ELISAs for eotaxin/CCL11, MCP-1/CCL2, KC/CXCL1 and MIP-2/CXCL14 were obtained from R&D Systems (Minneapolis, Minn. USA). Each was performed according to the manufacturer's instructions.

[5] = Tg+ mice, pretreatment, vs vehicle
[6] = given 48 hours or 14 days after dox-induced transgene activation
[7] = pretreatment, highest dose tested

For “polyinosinic-polycytidylic acid [Poly(I:C)]”, the “Evan's blue dye leakage in lungs” value [1, 5] was “lower levels”, the “VEGF-induced permeability alterations (Evans blue dye extravasation, lung wet to dry weight ratios, BAL protein)” value [1, 5] was “inhibited” and the “levels of protein in BAL fluids” value [1, 5] was “lower levels”. For the same substance, the “VEGF-induced vascular permeability alterations, delayed administration” value [1, 6] was “significant inhibition”, the “lowest dose with significant inhibition of VEGF-induced permeability alterations” value ([1]; pretreatment) was 5 µg and the “dose with maximal inhibition of VEGF-induced permeability alterations” value [1, 7] was 30 µg. For the same substance, the VEGF-stimulated mucus secretion ([2]; Tg+ mice, pretreatment) was “decreased”, the “VEGF-induced mucus metaplasia (PAS stains, BAL MUC5AC accumulation)” value ([2]; Tg+ mice, pretreatment) was “inhibited” and the “VEGF-induced mucus metaplasia (PAS stains, BAL MUC5AC accumulation)” value ([2]; Tg+ mice, pretreatment, listed as poly(I:C)) was “significantly decreased”. For the same substance, the “VEGF-induced mucus metaplasia, delayed administration” value [2, 6] was “significant inhibition”, the “lowest dose with significant inhibition of VEGF-induced mucus metaplasia” value ([2]; pretreatment) was 5 µg and the “dose with maximal inhibition of VEGF-induced mucus metaplasia” value [2, 7] was 30 µg. For the same substance, the “VEGF activation/phosphorylation of Erk, FAK, Akt and eNOS” value ([3]; 30 μg pretreatment, 2 weeks) was “significantly decreased”, the “VEGF-induced eNOS and iNOS mRNA accumulation and AKT phosphorylation/activation” value ([3]; p<0.05) was “significant decrease” and the “expression of VEGFR1 on dendritic cells and endothelial cells” value (VEGFR1) was “inhibited”. For the same substance, the “expression of VEGFR2 on dendritic cells and endothelial cells” value (VEGFR2) was “not”, the “expression of VEGFR3 on dendritic cells and endothelial cells” value (VEGFR3) was “not” and the “levels of KC/CXCL1 and MIP-2/CXCL14 in BAL” value [4] was “significant increases”.
